Our source for the inhibition, germination % and Activity values is ChEMBL document CHEMBL3044807, “Synthesis and biological evaluation of new ozonides with improved plant growth regulatory activity” (2009).

The first experiment relates to Cucumis sativus. As to the kind of experiment: Phytotoxic activity against Cucumis sativus (cucumber) seedlings assessed as inhibition of radicle growth at 5x10'-4 mol/l at 28 +/-1 degC after 48 hr by acid-washed sand based radicle elongation assay (reference value: 0.0%). The experiment is classed as functional.
Conditions: not given
In the case of `CC1=C2CCC(C)C[C@@]23O[C@H]1[C@H](C)C(=O)[C@H]3C` (stereo not given in full), the inhibition at 500 µM was 72.4%.
On the same count and under the same terms, then `C[C@@]12C=C[C@H](O1)[C@H]1CCCC[C@H]2C1=O`, with 74.7%.
As for `CC1=C[C@@H]2O[C@]1(C)[C@H]1CCCC[C@H]2C1=O`, the inhibition at 500 µM was 82.1%.
As for `C[C@@]12C=C[C@](C)(O1)[C@H]1CCCC[C@H]2C1=O`, the inhibition at 500 µM was 70.7%.
Same read-out and setting: the result for `CCC1C(=O)C(CC)C23CC(C)CCC24OOC(C)(O4)C1O3` (mixture of isomers) reads 55.6%.

The test system of a further experiment is Sorghum bicolor. Kind of experiment: Phytotoxic activity against Sorghum bicolor assessed as root growth inhibition at 5.0 x 10^-4 mol/l measured 15 days after seed sowing under greenhouse trials (reference value: 0.0%). The experiment is classed as functional. Conditions: 360 h.
As for `CC1=C2CCC(C)C[C@@]23O[C@H]1[C@H](C)C(=O)[C@H]3C` (stereo not given in full), the inhibition at 500 µM worked out at 6.2%.
In the case of `C[C@@]12C=C[C@H](O1)[C@H]1CCCC[C@H]2C1=O`, the inhibition at 500 µM was determined as 30.7%.
Turning to `CC1=C[C@@H]2O[C@]1(C)[C@H]1CCCC[C@H]2C1=O`, the inhibition at 500 µM was 49.6%.
The same measure, in the same setting: the result for `C[C@@]12C=C[C@](C)(O1)[C@H]1CCCC[C@H]2C1=O` reads 14.8%; that for `CCC1C(=O)C(CC)C23CC(C)CCC24OOC(C)(O4)C1O3` (mixture of isomers), 6.5%.

A further experiment deals with Sorghum bicolor. As to the kind of experiment: Phytotoxic activity against Sorghum bicolor seedlings assessed as germination at 5x10'-4 mol/l at 28 +/-1 degC after 48 hr by acid-washed sand based radicle elongation assay (reference value: 100%). It counts as functional.
Conditions: not given
Regarding `CC1=C2CCC(C)C[C@@]23O[C@H]1[C@H](C)C(=O)[C@H]3C` (stereo not given in full), the germination % at 500 µM came out at 96%.
Same read-out and setting: then `C[C@@]12C=C[C@H](O1)[C@H]1CCCC[C@H]2C1=O`, with 99%; and `CC1=C[C@@H]2O[C@]1(C)[C@H]1CCCC[C@H]2C1=O`, with 79%.
As for `C[C@@]12C=C[C@](C)(O1)[C@H]1CCCC[C@H]2C1=O`, the germination % at 500 µM was 100%.
Same read-out and setting: then `CCC1C(=O)C(CC)C23CC(C)CCC24OOC(C)(O4)C1O3` (mixture of isomers), with 100%.

The test system of the next experiment is Sorghum bicolor. Kind of experiment: Phytotoxic activity against Sorghum bicolor assessed as weight of roots at 5.0 x 10^-4 mol/l measured 15 days after seed sowing under greenhouse trials (reference value: 14.0 mg). The experiment is classed as functional.
Conditions: not given
On to `CC1=C2CCC(C)C[C@@]23O[C@H]1[C@H](C)C(=O)[C@H]3C` (stereo not given in full), for which the Activity is reported as 13.1 mg.
On the same count and under the same terms, then `C[C@@]12C=C[C@H](O1)[C@H]1CCCC[C@H]2C1=O`, with 9.7 mg; and `CC1=C[C@@H]2O[C@]1(C)[C@H]1CCCC[C@H]2C1=O`, with 7.1 mg.
`C[C@@]12C=C[C@](C)(O1)[C@H]1CCCC[C@H]2C1=O`: the Activity stood at 11.9 mg.
Still for that read-out and setting: then `CCC1C(=O)C(CC)C23CC(C)CCC24OOC(C)(O4)C1O3` (mixture of isomers), with 13.1 mg.

The next experiment relates to Sorghum bicolor. As to the kind of experiment: Phytotoxic activity against Sorghum bicolor seedlings assessed as radicle length at 5x10'-4 mol/l at 28 +/-1 degC after 48 hr by acid-washed sand based radicle elongation assay (reference value: 5.1 cm).
Conditions: not given
It counts as functional.
As for `CC1=C2CCC(C)C[C@@]23O[C@H]1[C@H](C)C(=O)[C@H]3C` (stereo not given in full), the Activity came out at 1.5 cm.
Still for that read-out and setting: the result for `C[C@@]12C=C[C@H](O1)[C@H]1CCCC[C@H]2C1=O` reads 2.1 cm; that for `CC1=C[C@@H]2O[C@]1(C)[C@H]1CCCC[C@H]2C1=O`, 0.9 cm.
Still for that read-out and setting: then `C[C@@]12C=C[C@](C)(O1)[C@H]1CCCC[C@H]2C1=O`, with 0.9 cm; and `CCC1C(=O)C(CC)C23CC(C)CCC24OOC(C)(O4)C1O3` (mixture of isomers), with 2.3 cm.

A further experiment deals with Sorghum bicolor. Kind of experiment: Phytotoxic activity against Sorghum bicolor assessed as weight of aerial parts at 5.0 x 10^-4 mol/l measured 15 days after seed sowing under greenhouse trials (reference value: 19.0 mg). It counts as functional.
Conditions: not given
For the compound `CC1=C2CCC(C)C[C@@]23O[C@H]1[C@H](C)C(=O)[C@H]3C` (stereo not given in full), the Activity came out at 14 mg.
The same measure, in the same setting: the result for `C[C@@]12C=C[C@H](O1)[C@H]1CCCC[C@H]2C1=O` reads 10.9 mg; that for `CC1=C[C@@H]2O[C@]1(C)[C@H]1CCCC[C@H]2C1=O`, 10 mg; that for `C[C@@]12C=C[C@](C)(O1)[C@H]1CCCC[C@H]2C1=O`, 12.7 mg.
On to `CCC1C(=O)C(CC)C23CC(C)CCC24OOC(C)(O4)C1O3` (mixture of isomers), for which the Activity came to 11.5 mg.

The subject of another experiment is Cucumis sativus. Kind of experiment: Phytotoxic activity against Cucumis sativus (cucumber) seedlings assessed as germination at 5x10'-4 mol/l at 28 +/-1 degC after 48 hr by acid-washed sand based radicle elongation assay (reference value: 100%). It counts as functional.
Conditions: not given
With `CC1=C2CCC(C)C[C@@]23O[C@H]1[C@H](C)C(=O)[C@H]3C` (stereo not given in full), the germination % at 500 µM was 96%.
Still for that read-out and setting: then `C[C@@]12C=C[C@H](O1)[C@H]1CCCC[C@H]2C1=O`, with 95%.
On to `CC1=C[C@@H]2O[C@]1(C)[C@H]1CCCC[C@H]2C1=O`, for which the germination % at 500 µM was 96%.
The same measure, in the same setting: then `C[C@@]12C=C[C@](C)(O1)[C@H]1CCCC[C@H]2C1=O`, with 82%.
On the same count and under the same terms, then `CCC1C(=O)C(CC)C23CC(C)CCC24OOC(C)(O4)C1O3` (mixture of isomers), with 96%.

The next experiment has as its system Sorghum bicolor. Kind of experiment: Phytotoxic activity against Sorghum bicolor seedlings assessed as inhibition of radicle growth at 5x10'-4 mol/l at 28 +/-1 degC after 48 hr by acid-washed sand based radicle elongation assay (reference value: 0.0%).
Conditions: not given
It counts as functional.
With `CC1=C2CCC(C)C[C@@]23O[C@H]1[C@H](C)C(=O)[C@H]3C` (stereo not given in full), the inhibition at 500 µM was determined as 71.4%.
Consider `C[C@@]12C=C[C@H](O1)[C@H]1CCCC[C@H]2C1=O`, for which the inhibition at 500 µM was 58.9%.
On the same count and under the same terms, then `CC1=C[C@@H]2O[C@]1(C)[C@H]1CCCC[C@H]2C1=O`, with 82.5%; and `C[C@@]12C=C[C@](C)(O1)[C@H]1CCCC[C@H]2C1=O`, with 83.4%.
The same measure, in the same setting: then `CCC1C(=O)C(CC)C23CC(C)CCC24OOC(C)(O4)C1O3` (mixture of isomers), with 55.1%.

Another experiment has as its system Cucumis sativus. Kind of experiment: Phytotoxic activity against Cucumis sativus (cucumber) assessed as root growth inhibition at 5.0 x 10^-4 mol/l measured 15 days after seed sowing under greenhouse trials (reference value: 0.0%). It counts as functional. Conditions: 360 h.
In the case of `CC1=C2CCC(C)C[C@@]23O[C@H]1[C@H](C)C(=O)[C@H]3C` (stereo not given in full), the inhibition at 500 µM came out at 34.4%.
On the same count and under the same terms, the result for `C[C@@]12C=C[C@H](O1)[C@H]1CCCC[C@H]2C1=O` reads 43.1%; that for `CC1=C[C@@H]2O[C@]1(C)[C@H]1CCCC[C@H]2C1=O`, 62.1%.
Same read-out and setting: the result for `C[C@@]12C=C[C@](C)(O1)[C@H]1CCCC[C@H]2C1=O` reads 66.2%; that for `CCC1C(=O)C(CC)C23CC(C)CCC24OOC(C)(O4)C1O3` (mixture of isomers), 6.5%.

The subject of the next experiment is Cucumis sativus. Kind of experiment: Phytotoxic activity against Cucumis sativus (cucumber) seedlings assessed as radicle length at 5x10'-4 mol/l at 28 +/-1 degC after 48 hr by acid-washed sand based radicle elongation assay (reference value: 4.8 cm). The experiment is classed as functional.
Conditions: not given
For `CC1=C2CCC(C)C[C@@]23O[C@H]1[C@H](C)C(=O)[C@H]3C` (stereo not given in full), the Activity stood at 1.3 cm.
As for `C[C@@]12C=C[C@H](O1)[C@H]1CCCC[C@H]2C1=O`, the Activity amounted to 1.2 cm.
On the same count and under the same terms, then `CC1=C[C@@H]2O[C@]1(C)[C@H]1CCCC[C@H]2C1=O`, with 0.9 cm; and `C[C@@]12C=C[C@](C)(O1)[C@H]1CCCC[C@H]2C1=O`, with 1.4 cm.
On the same count and under the same terms, the result for `CCC1C(=O)C(CC)C23CC(C)CCC24OOC(C)(O4)C1O3` (mixture of isomers) reads 2.1 cm.

For a further experiment, the system named is Sorghum bicolor. Kind of experiment: Phytotoxic activity against Sorghum bicolor assessed as aerial part growth inhibition at 5.0 x 10^-4 mol/l measured 15 days after seed sowing under greenhouse trials (reference value: 0.0%). It counts as functional. Conditions: 360 h.
Turning to `CC1=C2CCC(C)C[C@@]23O[C@H]1[C@H](C)C(=O)[C@H]3C` (stereo not given in full), the inhibition at 500 µM stood at 26.3%.
On to `C[C@@]12C=C[C@H](O1)[C@H]1CCCC[C@H]2C1=O`, for which the inhibition at 500 µM was 42.6%.
On the same count and under the same terms, then `CC1=C[C@@H]2O[C@]1(C)[C@H]1CCCC[C@H]2C1=O`, with 47.4%.
Turning to `C[C@@]12C=C[C@](C)(O1)[C@H]1CCCC[C@H]2C1=O`, the inhibition at 500 µM was determined as 32.9%.
Take `CCC1C(=O)C(CC)C23CC(C)CCC24OOC(C)(O4)C1O3` (mixture of isomers): the inhibition at 500 µM amounted to 39.6%.

The test system of the next experiment is Cucumis sativus. As to the kind of experiment: Phytotoxic activity against Cucumis sativus (cucumber) assessed as weight of roots at 5.0 x 10^-4 mol/l measured 15 days after seed sowing under greenhouse trials (reference value: 31.0 mg).
Conditions: not given
The experiment is classed as functional.
Turning to `CC1=C2CCC(C)C[C@@]23O[C@H]1[C@H](C)C(=O)[C@H]3C` (stereo not given in full), the Activity amounted to 20.3 mg.
On to `C[C@@]12C=C[C@H](O1)[C@H]1CCCC[C@H]2C1=O`, for which the Activity came out at 17.6 mg.
Still for that read-out and setting: the result for `CC1=C[C@@H]2O[C@]1(C)[C@H]1CCCC[C@H]2C1=O` reads 11.7 mg.
On the same count and under the same terms, the result for `C[C@@]12C=C[C@](C)(O1)[C@H]1CCCC[C@H]2C1=O` reads 10.5 mg; that for `CCC1C(=O)C(CC)C23CC(C)CCC24OOC(C)(O4)C1O3` (mixture of isomers), 29 mg.

Another experiment relates to Cucumis sativus. As to the kind of experiment: Phytotoxic activity against Cucumis sativus (cucumber) assessed as aerial part growth inhibition at 5.0 x 10^-4 mol/l measured 15 days after seed sowing under greenhouse trials (reference value: 0.0%). It counts as functional. Conditions: 360 h.
With `CC1=C2CCC(C)C[C@@]23O[C@H]1[C@H](C)C(=O)[C@H]3C` (stereo not given in full), the inhibition at 500 µM was found to be 5.9%.
In the case of `C[C@@]12C=C[C@H](O1)[C@H]1CCCC[C@H]2C1=O`, the inhibition at 500 µM amounted to 44.6%.
Still for that read-out and setting: the result for `CC1=C[C@@H]2O[C@]1(C)[C@H]1CCCC[C@H]2C1=O` reads 65.4%.
Still for that read-out and setting: then `C[C@@]12C=C[C@](C)(O1)[C@H]1CCCC[C@H]2C1=O`, with 15.6%.
The same measure, in the same setting: then `CCC1C(=O)C(CC)C23CC(C)CCC24OOC(C)(O4)C1O3` (mixture of isomers), with 36%.

Another experiment deals with Cucumis sativus. As to the kind of experiment: Phytotoxic activity against Cucumis sativus (cucumber) assessed as weight of aerial parts at 5.0 x 10^-4 mol/l measured 15 days after seed sowing under greenhouse trials (reference value: 47.0 mg). The experiment is classed as functional.
Conditions: not given
On to `CC1=C2CCC(C)C[C@@]23O[C@H]1[C@H](C)C(=O)[C@H]3C` (stereo not given in full), for which the Activity turned out to be 44.2 mg.
Still for that read-out and setting: then `C[C@@]12C=C[C@H](O1)[C@H]1CCCC[C@H]2C1=O`, with 26 mg.
On the same count and under the same terms, the result for `CC1=C[C@@H]2O[C@]1(C)[C@H]1CCCC[C@H]2C1=O` reads 16.3 mg.
On to `C[C@@]12C=C[C@](C)(O1)[C@H]1CCCC[C@H]2C1=O`, for which the Activity is 39.7 mg.
The same measure, in the same setting: then `CCC1C(=O)C(CC)C23CC(C)CCC24OOC(C)(O4)C1O3` (mixture of isomers), with 30.1 mg.

By inhibition is commonly meant the change of the read-out against control, counted positive when it falls.
